Data on 1 substance can be found in US7632814B2, “HYD1 peptides as anti-cancer agents” (University of South Florida, priority 2006, dated 2009).

Where no end group is shown, it is not given here. [ ]: non-standard residue; d: D form.

One assay has as its system H929 cells. Put plainly: Electron microscopy of double membrane vesicles. It is filed as cell-based. The note with it: 100 μg/ml, 4 hours. The procedure:
H929 cells were treated with either 100 µg/ml HYD1 (FIG. 24A) or HYD1S (FIG. 24B) for four hours and processed for electron microscopy as described in materials and methods.
Electron Microscopy. H929 cells were treated for four hours with either 100 μg/ml HYD1 or HYD1S. After peptide treatment, the samples were fixed overnight in 2.5% glutaraldehyde in 0.1M phosphate buffer, pH 7.2 overnight at four degrees. Following fixation, the cells were rinsed 2 times for 10 minutes each in 0.1M phosphate buffer, pH 7.2, at 4° C. The cells were loosely pelleted in microcentrifuge tubes at 500×G for 3 minutes. The buffer was removed from the cells and replaced with 1% osmium tetroxide in the above buffer at 4° C. The cells were resuspended and post-fixed for 1 hour, then loosely pelleted and rinsed in the above buffer. This step was repeated for a total of 3 rinses of 5 minutes each, with the cells being resuspended after each buffer change. Cells were dehydrated through a graded series of acetone, 30%, 50%, 70%, and 95% acetone in water, 5 minutes per change with loose pelleting at 750×G for 5 minutes, then resuspension for each step. The cells were then dehydrated through three changes of 100% acetone, 10 minutes per change, with a 5 minute pelleting step at 1000×G, followed by resuspension in each step. […]

A further assay has as its system prostate tumor cell. Put plainly: Random haptotaxis (cell migration) on laminin 322 (laminin 5). It is filed as cell-based. Particulars: soluble peptide, cells grown on ligand before treatment. An excerpt:
Defining the minimal region of HYD1 necessary to potentiate drug-induced apoptosis in suspension and adherent cultures is of interest. Below is a study to determine the minimal HYD1 sequence required to block prostate tumor cell migration. Similar studies as those outlined below and using the same peptide sequences will be used to determine the minimal amino acid sequence required for potentiation of drug induced apoptosis.
This response to the peptide is independent of disrupting adhesion to laminin 322 (laminin 5) since the cells were grown on a ligand before treatment with the peptide. […] All other alanine-substitution mutants resulted cell migration, i.e., a loss of peptide activity.
Using the negative control scrambled peptide, HYDS (SEQ ID NO:44), to indicate 100% cell migration, several truncated peptides including, ikmviswkg (SEQ ID NO:22), kmviswkg (SEQ ID NO:39), and kikmviswk (SEQ ID NO:37) were effective at blocking cell migration by approximately 50%.

The target of the next assay is T1, β1 integrin (Homo sapiens, UniProt P05556).
T1 construct: endogenous in cells
Nature of the assay: Binding of peptide to the cell surface. An excerpt:
Another aspect of the invention concerns a method of identifying modulators of peptide binding (a screen for molecules that displace peptide binding). Agents that are identified as being capable of competing with the HYD1 peptides of the invention for binding to β1 integrin may have utility as cytotoxic agents for research or therapy (e.g., for cancer treatment). The method comprising providing a candidate agent (such as a chemical compound, antibody, nucleic acid, or peptide); and determining whether the agent inhibits (e.g., disrupts, prevents, or interferes with), the ability of a HYD1 peptide of the invention (HYD1 or a fragment or variant thereof) to bind to β1 integrin on a cell surface (e.g., cancer cell surface) and/or inhibit β1 integrin mediated adhesion, in vitro or in vivo (e.g., in an animal model). Preferably, the cell is a cancer cell such as a myeloma cell or a cell of other cancer types (see, for example Table 1). Preferably, the peptide is labeled with a detectable moiety (e.g., a fluorescent tag, such as […]) to facilitate the determining step. Examples of controls that may be utilized in carrying out the screening method include, but are not limited to, unlabeled HYD1 peptides (HYD1, or a fragment or variant thereof); scrambled peptides (such as HYD1S); β1 integrin blocking antibody; and non-specific surface antigen binding antibody (such as CD138 for myeloma cells). Advantageously, using the screening assay, labeled HYD1 or fragments or variants thereof, can be used to screen candidates such as small molecules, on natural product libraries, in a rapid, high-throughput fashion. […] Fluorescence polarization (FP) analysis can be used to screen small molecule or natural product libraries for discovery of novel compounds that mimic the specific binding and potentially the biological activity of HYD1. The FP assay is based on the extent of depolarization of the free versus bond peptide, which can be accurately measured on commercially available FP plate readers. […] In summary, a high throughput screen (HTS) can be used to bind small molecules prior to the addition of an HYD1 probe and molecules of interest can be identified by displacement of bond peptide, with a corresponding increase in unbound peptide by FP analysis. An analogous high-throughput binding assay based on fluorescence polarization, which allows screening for small molecules that bind to the STAT3 SH2 domain, is described in Schust J. and Berg T., Anal Biochem., 2004 Jul. 1; 330(1):114-8. […]

T1 sequence (P05556 21-798): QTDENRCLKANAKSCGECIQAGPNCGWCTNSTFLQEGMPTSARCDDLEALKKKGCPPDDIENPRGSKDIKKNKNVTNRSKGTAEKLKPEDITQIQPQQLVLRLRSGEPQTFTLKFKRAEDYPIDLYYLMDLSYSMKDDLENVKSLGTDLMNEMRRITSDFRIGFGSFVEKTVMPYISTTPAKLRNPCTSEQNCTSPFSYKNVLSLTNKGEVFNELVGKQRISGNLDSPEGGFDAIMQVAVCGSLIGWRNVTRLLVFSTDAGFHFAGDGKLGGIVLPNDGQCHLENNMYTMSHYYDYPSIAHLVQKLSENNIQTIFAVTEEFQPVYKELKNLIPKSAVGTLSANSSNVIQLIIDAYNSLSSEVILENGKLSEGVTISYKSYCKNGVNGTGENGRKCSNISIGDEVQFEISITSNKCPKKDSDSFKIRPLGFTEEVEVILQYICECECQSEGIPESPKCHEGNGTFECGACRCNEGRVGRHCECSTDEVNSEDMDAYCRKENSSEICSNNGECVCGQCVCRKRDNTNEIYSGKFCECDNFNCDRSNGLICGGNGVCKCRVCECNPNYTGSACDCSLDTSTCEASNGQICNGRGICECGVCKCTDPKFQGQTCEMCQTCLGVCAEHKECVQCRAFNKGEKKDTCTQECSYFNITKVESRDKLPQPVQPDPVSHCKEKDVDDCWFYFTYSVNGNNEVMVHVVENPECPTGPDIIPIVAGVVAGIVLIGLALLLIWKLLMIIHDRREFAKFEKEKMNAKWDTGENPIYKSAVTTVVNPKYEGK

In the case of “kikmviswkg ([dK][dI][dK][dM][dV][dI][dS][dW][dK]G) [HYD1]”, the “formation of double membranes / vesicles (EM)” value with H929 cells was “increased formation of double membranes”. For the same substance, the “blocking of random haptotaxis on laminin 322 (laminin 5)” value in the assay with prostate tumor cell is given as “completely blocks random haptotaxis”. Further, in the assay with β1 integrin, the “binding to the cell surface” value is given as “bind to the cell surface” and the “blocking of cell surface binding by β1 integrin antibody” value is “is blocked”.
